Drawing on PubChem BioAssay AID248 (DTP/NCI, 2004), this text covers T/C for 21 molecules.

Where “and” joins values, the source holds several entries; their conditions need not be identical. Equal values may be shown once. Toxic doses and inconclusive results are not listed.

This test concerns L1210 leukemia ip in BDF1 mice, survival T/C. As to the kind of experiment: NCI In Vivo Anticancer Drug Screen. Data for tumor model L1210 Leukemia (intraperitoneal) in B6D2F1 (BDF1) mice. To be noted: endpoint: mean survival time, higher = longer survival. An outline of the steps: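 Antitumor effect is assessed in tumor-bearing animals. Survival in the compound arm is compared with a vehicle-dosed control arm and expressed as their quotient.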

[1] abbreviates: dose: 100.0 mg/kg/injection, schedule: Q01DX009 (ip), vehicle: Klucel (hydroxypropylcellulose) (HPC).
The mark [2] stands for this setting: dose: 100.0 mg/kg/injection, schedule: Q04DX003 (ip), vehicle: Klucel (hydroxypropylcellulose) (HPC).
Where [3] appears, read: dose: 200.0 mg/kg/injection, schedule: Q01DX009 (ip), vehicle: Klucel (hydroxypropylcellulose) (HPC).
Setting [4] is: dose: 200.0 mg/kg/injection, schedule: Q04DX003 (ip), vehicle: Klucel (hydroxypropylcellulose) (HPC).
Where [5] appears, read: dose: 400.0 mg/kg/injection, schedule: Q01DX009 (ip), vehicle: Klucel (hydroxypropylcellulose) (HPC).
Where [6] appears, read: dose: 400.0 mg/kg/injection, schedule: Q04DX003 (ip), vehicle: Klucel (hydroxypropylcellulose) (HPC).
Setting [7] is: dose: 100.0 mg/kg/injection, schedule: Q01DX001 (ip), vehicle: carboxymethylcellulose (CMC).
Setting [8] is: dose: 200.0 mg/kg/injection, schedule: Q01DX001 (ip), vehicle: carboxymethylcellulose (CMC).
The mark [9] stands for this setting: dose: 400.0 mg/kg/injection, schedule: Q01DX001 (ip), vehicle: carboxymethylcellulose (CMC).
Where [10] appears, read: dose: 100.0 mg/kg/injection, schedule: Q04DX003 (ip), vehicle: saline.
Setting [11] is: dose: 100.0 mg/kg/injection, schedule: Q01DX009 (ip), vehicle: saline.
[12] abbreviates: dose: 200.0 mg/kg/injection, schedule: Q01DX009 (ip), vehicle: saline.
Setting [13] is: dose: 200.0 mg/kg/injection, schedule: Q04DX003 (ip), vehicle: saline.
[14] abbreviates: dose: 400.0 mg/kg/injection, schedule: Q01DX009 (ip), vehicle: saline.
[15] abbreviates: dose: 400.0 mg/kg/injection, schedule: Q04DX003 (ip), vehicle: saline.
The mark [16] stands for this setting: dose: 50.0 mg/kg/injection, schedule: Q01DX001 (ip), vehicle: carboxymethylcellulose (CMC).

As to `NC(N)=N/N=C/c1ccc(F)cc1`, the T/C is, setting by setting: (dose: 15.0 mg/kg/injection, schedule: Q01DX Z (ip), vehicle: carboxymethylcellulose (CMC)) 95 % of control; (dose: 30.0 mg/kg/injection, schedule: Q01DX Z (ip), vehicle: carboxymethylcellulose (CMC)) 101 % of control; (dose: 60.0 mg/kg/injection, schedule: Q01DX Z (ip), vehicle: carboxymethylcellulose (CMC)) 100 % of control and 109 % of control; (dose: 120.0 mg/kg/injection, schedule: Q01DX Z (ip), vehicle: carboxymethylcellulose (CMC)) 97 % of control.
For `Cc1ccc(NC(=O)Nc2ccc(Cl)c(Cl)c2)cc1Cl`, the T/C by setting is: under setting [1], 97 % of control; under setting [2], 93 % of control; under setting [3], 87 % of control; under setting [4], 96 % of control; under setting [5], 92 % of control; under setting [6], 91 % of control.
As to `CCN=C(c1ccc(NC(=O)c2ccc(C(=O)Nc3ccc(C(=NCC)N(CC)C(C)=O)cc3)cc2)cc1)N(CC)C(C)=O`, the T/C runs as follows: (dose: 125.0 mg/kg/injection, schedule: Q01DX015 (ip), vehicle: methylcellulose (MC)) 95 % of control; (dose: 375.0 mg/kg/injection, schedule: Q01DX015 (ip), vehicle: methylcellulose (MC)) 104 % of control; (dose: 500.0 mg/kg/injection, schedule: Q01DX015 (ip), vehicle: methylcellulose (MC)) 103 % of control.
On to `CCOc1ccc2c(c1)C(C)=CC(C)(C)N2`, for which the T/C is, setting by setting: under setting [2], 93 % of control; under setting [4], 101 % of control; under setting [6], 121 % of control.
For `CC(=O)C(C(C)=O)C(c1ccccc1)C(C(C)=O)C(C)=O`, the T/C runs as follows: under setting [1], 94 % of control; under setting [3], 91 % of control.
Regarding `[N-]=Cc1c(O)cccc1Cl.[N-]=Cc1cc(Cl)ccc1O.[Ni+2]`, the T/C runs as follows: (dose: 6.25 mg/kg/injection, schedule: Q01DX009 (ip), vehicle: Klucel (hydroxypropylcellulose) (HPC)) 96 % of control; (dose: 12.5 mg/kg/injection, schedule: Q01DX009 (ip), vehicle: Klucel (hydroxypropylcellulose) (HPC)) 93 % of control; (dose: 25.0 mg/kg/injection, schedule: Q01DX009 (ip), vehicle: Klucel (hydroxypropylcellulose) (HPC)) 95 % of control; under setting [2], 97 % of control; under setting [4], 87 % of control; under setting [6], 86 % of control.
Regarding `O=C1OC(=O)C2C1C1C=CC2C1(c1ccccc1)c1ccccc1` (stereo unspecified), the T/C runs as follows: under setting [7], 96 % of control; under setting [8], 96 % of control; under setting [9], 96 % of control.
Consider `O=C/C(=C/Nc1ccc(C(=O)O)cc1)[N+](=O)[O-]`, for which the T/C (dose: 100.0 mg/kg/injection, schedule: Q04DX002 (ip), vehicle: Klucel (hydroxypropylcellulose) (HPC)) was 109 % of control; the T/C (dose: 200.0 mg/kg/injection, schedule: Q04DX002 (ip), vehicle: Klucel (hydroxypropylcellulose) (HPC)) was 98 % of control; the T/C (dose: 400.0 mg/kg/injection, schedule: Q04DX002 (ip), vehicle: Klucel (hydroxypropylcellulose) (HPC)) was 98 % of control.
As to `CCN(CC)c1ccc(NCS(=O)(=O)O)cc1`, the T/C is 103 % of control (dose: 50.0 mg/kg/injection, schedule: Q01DX009 (ip), vehicle: saline sonified); 101 % of control (dose: 100.0 mg/kg/injection, schedule: Q01DX009 (ip), vehicle: saline sonified); 110 % of control under setting [10].
With `CN1CC(C)(C)C(O)c2ccccc21` (stereo unspecified), the T/C runs as follows: (dose: 25.0 mg/kg/injection, schedule: Q04DX002 (ip), vehicle: other) 100 % of control; (dose: 50.0 mg/kg/injection, schedule: Q04DX002 (ip), vehicle: other) 90 % of control; (dose: 100.0 mg/kg/injection, schedule: Q04DX002 (ip), vehicle: other) 107 % of control.
On to `Cc1cccc(=O)n1CCC#N`, for which the T/C reads like this: under setting [11], 96 % of control; under setting [10], 101 % of control; under setting [12], 106 % of control; under setting [13], 93 % of control; under setting [14], 112 % of control; under setting [15], 106 % of control.
For the molecule `Cc1cc(Cl)ccc1NC(=O)c1ccc(Cl)cc1Cl`, the T/C under setting [1] is 96 % of control; the T/C under setting [2] is 95 % of control; the T/C under setting [3] is 91 % of control; the T/C under setting [4] was 92 % of control; the T/C under setting [5] was 94 % of control; the T/C under setting [6] was 88 % of control.
Take `C[C@]12CCC(=O)C=C1CC[C@H]1[C@@H]3CC[C@](O)(C(=O)CO)[C@@]3(C)C[C@H](O)[C@@]12F`: the T/C (dose: 50.0 mg/kg/injection, schedule: Q01DX001 (sc), vehicle: steriod suspending solution) is 103 % of control; the T/C (dose: 100.0 mg/kg/injection, schedule: Q01DX001 (sc), vehicle: steriod suspending solution) was 100 % of control; the T/C (dose: 200.0 mg/kg/injection, schedule: Q01DX001 (sc), vehicle: steriod suspending solution) was 105 % of control; the T/C (dose: 400.0 mg/kg/injection, schedule: Q01DX001 (sc), vehicle: steriod suspending solution) is 105 % of control.
With `COc1ccc(/C=C(\NC(C)=O)C(=O)O)cc1`, the T/C is 104 % of control under setting [1]; 100 % of control under setting [2]; 97 % of control under setting [3]; 100 % of control under setting [4]; 98 % of control under setting [5]; 112 % of control under setting [6].
Regarding `CC(CO)(CO)N=Cc1cc(Cl)cc(Cl)c1O`, the T/C is 107 % of control under setting [16], 97 % of control under setting [7], 107 % of control under setting [8] and 97 % of control under setting [9].
For `c1ccc(C[P+](Cc2ccccc2)(c2ccccc2)c2ccccc2)cc1`, where the note is “dose: 75.0 mg/kg/injection, schedule: Q01DX001 (ip), vehicle: saline”, the T/C was 94 % of control.
As for `N#CCCCCCl`, the T/C runs as follows: (dose: 6.0 mg/kg/injection, schedule: Q01DX009 (ip), vehicle: saline) 103 % of control; (dose: 12.0 mg/kg/injection, schedule: Q01DX009 (ip), vehicle: saline) 105 % of control; (dose: 12.0 mg/kg/injection, schedule: Q04DX003 (ip), vehicle: saline) 97 % of control; (dose: 25.0 mg/kg/injection, schedule: Q01DX009 (ip), vehicle: saline) 103 % of control; (dose: 25.0 mg/kg/injection, schedule: Q04DX003 (ip), vehicle: saline) 96 % of control.
As to `COc1ccc2c(Nc3ccc(NS(C)(=O)=O)cc3)c3ccccc3nc2c1`, the T/C reads like this: (dose: 6.25 mg/kg/injection, schedule: Q01DX009 (ip), vehicle: saline with Tween-80) 183 % of control; (dose: 12.5 mg/kg/injection, schedule: Q01DX009 (ip), vehicle: saline with Tween-80) 181 % of control; (dose: 25.0 mg/kg/injection, schedule: Q01DX009 (ip), vehicle: saline with Tween-80) 117 % of control; (dose: 25.0 mg/kg/injection, schedule: Q01DX009 (sc), vehicle: saline) 164 % of control; (dose: 44.0 mg/kg/injection, schedule: Q04DX003 (ip), vehicle: saline with Tween-80) 172 % of control; (dose: 50.0 mg/kg/injection, schedule: Q01DX009 (sc), vehicle: saline) 95 % of control. Moreover, the T/C (dose: 67.0 mg/kg/injection, schedule: Q04DX003 (ip), vehicle: saline with Tween-80) is 169 % of control and the T/C (dose: 100.0 mg/kg/injection, schedule: Q04DX003 (ip), vehicle: saline with Tween-80) was 276 % of control.
In the case of `COc1cccc(/C=N/Nc2nnc(N/N=C/c3cccc(OC)c3)c3ccccc23)c1`, the T/C under setting [16] is 101 % of control, the T/C under setting [7] is 107 % of control and the T/C under setting [8] was 103 % of control.
Consider `O=C(CBr)OCCCS(=O)(=O)O`, for which the T/C is, setting by setting: under setting [11], 96 % of control; under setting [10], 105 % of control; under setting [12], 113 % of control; under setting [13], 104 % of control; under setting [14], 102 % of control; under setting [15], 93 % of control.
As for `OCc1cc2ccccc2cc1O`, the T/C under setting [1] is 97 % of control; the T/C under setting [2] was 97 % of control; the T/C under setting [3] is 106 % of control; the T/C under setting [4] is 94 % of control; the T/C under setting [5] was 108 % of control; the T/C under setting [6] was 89 % of control.
